Like-named read-outs stand apart in the source and are kept apart here. Ends that are not written are not given here.

Experiment [1] has as its system panel of purified HLA DR molecules. It counts as binding, human.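 Note: competitive inhibition of radiolabeled probe peptide binding to purified HLA DR molecules, with inhibitory potency of unlabeled peptides taken as an approximation of affinity.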
Experimental: (§1) Class II peptide-binding assays. […] These assays were chosen as to be representative of the most common DR alleles.
(§2) Radiolabeled peptides were iodinated using the chloramine-T method. […] In appropriate stoichiometric conditions, the IC50 of an unlabeled test peptide to the purified DR is a reasonable approximation of the affinity of interaction (Kd). Peptides were tested in two to four completely independent experiments. […] Final detergent concentration in the incubation mixture was 0.05% Nonidet P-40. Assays were performed at pH 7.0 with the exception of DR3, which was performed at pH 4.5, and DRw53, which was performed at pH 5.0.
(§3) All subsequent inhibition and direct binding assays were the performed using these class II concentrations.
Experiment [2] deals with DRB1*0405 (DR4w15) (Homo sapiens, UniProt P01903+P01911, A100R/A169T/D86S/F76Y/I96L/K127E/L162R/M171V/N62H/P40V/Q125Y/R42H/S133A/S149N/S66Y/V115G/V209L/W38E). Put plainly: Class II peptide-binding assay, DR4w15.
Experimental: as §1, §2, §3
DR4w15. The β4 product DRw53 is co-expressed with DR4w15 and the determination of the specificity of the DR4w1 binding assay is complicated in that the same radiolabeled ligand is used for both the DR4w15 and DRw53 binding assays.
Experiment [3] has as its target T1, DRB1*1101 (DR5w11) (Homo sapiens, UniProt P01903+P01911, A100R/A169T/A87E/I96F/K41T/L162R/M171V/P40S/Q125H/Q178H/Q39Y/Q99D/R42S/S66Y/T262R/V115G/W38E).
T1 construct: used as sources of human HLA class II molecules; endogenous in cells; host or cells: SWEIG (EBV-transformed homozygous B cell line)
Put plainly: Class II peptide-binding assay, DR5w11.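 Note: competition by unlabeled test peptide against iodinated probe peptide binding to affinity-purified HLA-DR, class II amount titrated beforehand, half-maximal inhibitory concentration read as approximate Kd.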
Experimental: as §1, §2, §3

The target in experiment [4] is T2, DRB1*0101 (DR1) (Homo sapiens, UniProt P01903+P01911, A100R/D57E/F55L/F60I/F76Y/I96L/L162R/M171V/P40L/Q125E/R42F/V115G/Y59C).
T2 construct: used as sources of human HLA class II molecules; endogenous in cells; host or cells: LG2 (EBV-transformed homozygous B cell line)
Put plainly: Class II peptide-binding assay, DR1.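 Note: competition assay: unlabeled test peptides inhibit binding of a radiolabeled probe peptide to purified DR, with half-maximal inhibition taken as an approximate dissociation constant Kd.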

For experiment [5], the target named is T3, DRB1*0401 (DR4w4) (Homo sapiens, UniProt P01903+P01911, A100K/A169T/F76Y/I96L/K127E/L162R/M171V/N62H/P40V/Q125Y/R42H/S133A/S149N/S66Y/V115G/V209L/W38E).
T3 construct: used as sources of human HLA class II molecules; endogenous in cells; host or cells: PREISS (EBV-transformed homozygous B cell line)
In words: Class II peptide-binding assay, DR4w4.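 Note: unlabeled test peptides compete with a radiolabeled probe peptide for binding to affinity-purified HLA-DR, with DR amount titrated to capture a small fraction of label, IC50 approximating Kd.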

For experiment [6], the target named is T4, DRB1*0802 (DR8w2) (Homo sapiens, UniProt P01903+P01911, A100R/A103L/A169T/F76Y/H45Y/I96F/K41T/L162R/M171V/P40S/Q125H/Q178H/Q39Y/Q99D/R218S/R42G/S66Y/V115G/W38E).
T4 construct: used as sources of human HLA class II molecules; endogenous in cells; host or cells: OLL (EBV-transformed homozygous B cell line)
In words: Class II peptide-binding assay, DR8w2.
Experimental: as §1, §2, §3
DR8w2 and DR8w3. The β1 specificity of the DR8w2 and DR8w3 assays is obvious in that no β3 (and/or B4 and β5) molecule is expressed.

The target of experiment [7] is T5, DRB4*0101 (DRw53) (Homo sapiens, UniProt P01903+P13762, G164S).
T5 construct: expressed in transfected cells; host or cells: L257.6 transfected fibroblasts
It counts as binding. The settings on record: read-out: DRw53 nM (In IC50 Format).
Experimental: as §1, §2, §3

Experiment [8] has as its target T6, DRB5*0101 (DR2w2a) (Homo sapiens, UniProt P01903+Q30154).
T6 construct: used as sources of human HLA class II molecules; endogenous in cells; host or cells: GM3107 (EBV-transformed homozygous B cell line)
Put plainly: Class II peptide-binding assay, DR2w2a (DR2w2B2).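 Note: competitive binding assay: unlabeled peptide inhibiting binding of a radiolabeled probe peptide to purified DR molecules at pH 7.0, IC50 approximating Kd, lower means stronger binding.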
Experimental: as §1, §2, §3

Experiment [9] deals with T7, DRB10404 (DR4w14) (Homo sapiens, UniProt P01903+P01911, A100R/A169T/F76Y/I96L/K127E/L162R/M171V/N62H/P40V/Q125Y/R42H/S133A/S149N/S66Y/V209L/W38E).
T7 construct: used as sources of human HLA class II molecules; endogenous in cells; host or cells: BIN40 (EBV-transformed homozygous B cell line)
Put plainly: Class II peptide-binding assay, DR4w14.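 Note: unlabeled peptides compete with a radiolabeled probe for binding to affinity-purified HLA-DR, neutral pH, class II amount titrated to bind a small fraction of label, IC50 approximates Kd.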 The note with it: read-out: DR4w14 nM (In IC50 Format); purified HLA DR4w14.

The target in experiment [10] is DRB1*0701 (DR7) (Homo sapiens, UniProt P01903+P01911, A100R/A102G/A103Q/D57E/D86V/E43K/F76Y/K127E/L162R/M171V/P40G/Q125H/Q99D/R33Q/R42Y/R54Q/S133A/S66F/T210M/V115G/Y107V/Y59L/Y89S). Put plainly: Class II peptide-binding assay, DR7.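 Note: unlabeled peptides compete with an iodinated probe peptide for binding to affinity-purified HLA-DR at neutral pH, DR amount titered to bind a small tracer fraction, IC50 approximating Kd.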
Experiment [11] addresses DRB1*1302 (DR6w19) (Homo sapiens, UniProt P01903+P01911, A100E/A169T/K41T/L162R/M171V/P40S/Q125H/Q178H/Q39Y/Q99D/R42S/S66N/T262R/V115G/W38E/Y61H). It counts as binding.
Experimental: The lysates were cleared of debris and nuclei by centrifugation at 10,000 x g for 20 min.
Affinity purification of HLA-DR molecules.
as §1, §2, §3
DR6w19. The DR6w19 assay utilizes as the source of class II molecules the EBV transformed homozygous cell line H0301, which co-expresses DRB30301 (DR52a). While the radiolabeled ligand used in the DR6w19 assay is different than that used for the DR52a assay, the ligand is related (i.e., is a single substitution analog) to a high affinity DR52a binder. As was done in the case of DR4w15, the specificity of the assay was investigated by analyzing the binding capacity of a panel of naturally occurring peptides for DR6w19 and DR52a.
In experiment [12] the target is T8, DRB1*1501 (DR2w2b) (Homo sapiens, UniProt P01903+P01911).
T8 construct: expressed in transfected cells; host or cells: L466.1 transfected fibroblasts
Put plainly: Class II peptide-binding assay, DR2w2b (DR2w2B1).
Experimental: as §1
(§4) In appropriate stoichiometric conditions, the IC50 of an unlabeled test peptide to the purified DR is a reasonable approximation of the affinity of interaction (Kd). Peptides were tested in two to four completely independent experiments. […] Final detergent concentration in the incubation mixture was 0.05% Nonidet P-40. Assays were performed at pH 7.0 with the exception of DR3, which was performed at pH 4.5, and DRw53, which was performed at pH 5.0.
as §3

In experiment [13] the target is T9, DRB1*1201 (DR5w12) (Homo sapiens, UniProt P01903+P01911, A100R/A169T/D57E/D86V/F55L/H45Y/K41T/L162R/M171V/P40S/Q125H/Q178H/Q39Y/Q99D/R42G/S66L/T262R/V114A/V67L/W38E/Y59H/Y61H/Y89S).
T9 construct: used as sources of human HLA class II molecules; endogenous in cells; host or cells: Herluf (EBV-transformed homozygous B cell line)
In words: Class II peptide-binding assay, DR5w12. The settings on record: Table V A) Non Predictions; read-out: Binding Capacity DR5w12.
Experimental: as §1, §4, §3

Experiment [14] addresses T10, DRB1*0901 (DR9) (Homo sapiens, UniProt P01903+P01911, A100R/A103E/D57H/D86V/F55Y/F60I/F76Y/I96F/K127E/L162R/M171V/P40D/Q125H/Q99R/R33Q/R42F/S133A/S66N/T210M/V115G/W38K/Y107V/Y59G/Y89S).
T10 construct: used as sources of human HLA class II molecules; endogenous in cells; host or cells: HTC9074 (EBV-transformed homozygous B cell line); gift of Dr. Paul Harris
Put plainly: Class II peptide-binding assay, DR9. The settings on record: Table V A) Non Predictions; read-out: Binding Capacity DR9.
Experimental: as §1, §4, §3

[15] abbreviates: Table V A) Non Predictions, 12 DR molecules listed.
The mark [16] stands for this setting: Table V A) Non Predictions, read-out: Binding Capacity DR4w15.
The mark [17] stands for this setting: Table V A) Non Predictions, read-out: Binding Capacity DR5w11.
The mark [18] stands for this setting: Table V A) Non Predictions, read-out: Binding Capacity DR1.
Setting [19] is: Table V A) Non Predictions, read-out: Binding Capacity DR4w4.
Setting [20] is: Table V A) Non Predictions, read-out: Binding Capacity DR8w2.

T1 sequence (P01903 26-254, other chains not shown): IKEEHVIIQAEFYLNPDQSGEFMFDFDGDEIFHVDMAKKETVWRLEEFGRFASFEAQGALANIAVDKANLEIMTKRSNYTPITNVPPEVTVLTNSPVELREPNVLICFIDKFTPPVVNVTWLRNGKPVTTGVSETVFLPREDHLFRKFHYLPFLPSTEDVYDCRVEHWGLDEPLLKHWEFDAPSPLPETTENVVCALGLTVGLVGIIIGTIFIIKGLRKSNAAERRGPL
DRB1*1302 (DR6w19), sequence (P01903 26-254, other chains not shown): as above

As for WLFPRFKFVWVTYASW [Peptide 1136.44.01], the “Total Alleles Bound” value in experiment [1] (setting [15]) was 2. The IC50 in experiment [2] (setting [16]) was 6550 nM; in experiment [3] (setting [17]) it was 4000 nM; in [4] (setting [18]), 526 nM; in [5] (setting [19]), 780 nM; in experiment [6] (setting [20]) it was 6360 nM.
Consider YARFQRQTTLKAAA-NH2 [Peptide 717.10], for which the IC50 in experiment [7] stood at 6.5 nM; in experiment [8] (read-out: DR2w2B2 nM (In IC50 Format), purified HLA DR2w2β2), 55.6 nM; in experiment [3] (read-out: DR5w11 nM (In IC50 Format), purified HLA DR5w11) it was 8.7 nM; in experiment [9], 12.8 nM; in experiment [4] (read-out: DR1 nM (In IC50 Format), purified HLA DR1), 2.9 nM; in experiment [10] (read-out: DR7 nM (In IC50 Format), purified HLA DR7) it was 3570 nM. The IC50 in experiment [5] (read-out: DR4w4 nM (In IC50 Format), purified HLA DR4w4) worked out at 5.6 nM.
In the case of QEIDPLSYNYIPVNSN [Peptide 1136.55], in experiment [1], the “Total Alleles Bound” value was 3. The IC50 in experiment [11] (Table V B) Correct Predictions, read-out: Binding Capacity (IC50% nM) DR6w19) is 5000 nM; in experiment [2] (Table V B) Correct Predictions, read-out: Binding Capacity (IC50% nM) DR4w15), 271 nM; in experiment [3] (Table V B) Correct Predictions, read-out: Binding Capacity (IC50% nM) DR5w11) it was 4540 nM; in [10] (Table V B) Correct Predictions, read-out: Binding Capacity (IC50% nM) DR7), 2450 nM.
Take GPPTALRSFGFAFGYM [Peptide 1136.29]: the IC50 is 1.1 nM in experiment [12] (Table V A) Non Predictions, read-out: Binding Capacity DR2w2b); 1000 nM in [13]; 183 nM in experiment [14]; 468 nM in experiment [8] (Table V A) Non Predictions, read-out: Binding Capacity DR2w2a); 745 nM in experiment [2] (setting [16]); 6250 nM in experiment [3] (setting [17]). Besides, the IC50 in experiment [4] (setting [18]) was 32 nM; in [5] (setting [19]) it was 4330 nM; in [6] (setting [20]), 2970 nM. Further, the “Total Alleles Bound” value in experiment [1] (setting [15]) is 7.
`CC[C@H](C)[C@H](NC(=O)[C@H](CC(C)C)NC(=O)[C@H](C)NC(=O)[C@@H](N)CC(C)C)C(=O)N[C@@H](Cc1c[nH]cn1)C(=O)N[C@@H](Cc1c[nH]cn1)C(=O)N[C@@H](CC(N)=O)C(=O)N[C@H](C(=O)N[C@@H](Cc1c[nH]cn1)C(=O)N[C@@H](CC(C)C)C(=O)N[C@@H](CS)C(=O)N[C@@H](Cc1ccccc1)C(=O)N[C@H](C(=O)N[C@@H](Cc1c[nH]cn1)C(=O)N[C@H](C(=O)O)[C@@H](C)O)C(C)C)[C@@H](C)O` [Peptide 39.0352]: the IC50 stood at 91.9 nM in experiment [12] (read-out: In IC50 Format DR2w2B1 nM, Table VIII, values in parentheses read as lower bounds); 4.7 nM in [11] (read-out: In IC50 Format DR6w19 nM, Table VIII, values in parentheses read as lower bounds); 8000 nM in experiment [3] (read-out: In IC50 Format DR5w11 nM, Table VIII, values in parentheses read as lower bounds); 1250 nM in [10] (read-out: In IC50 Format DR7 nM, Table VIII, values in parentheses read as lower bounds); 1480 nM in experiment [6] (read-out: In IC50 Format DR8w2 nM, Table VIII, values in parentheses read as lower bounds).

The record behind these values is patent publication EP1388586A2, “Identification of broadly reactive DR restricted epitopes” (priority 1998, dated 1999).
